The text below walks through data of ChEMBL document CHEMBL3425442, “Tetrahydroindazoles as Interleukin-2 Inducible T-Cell Kinase Inhibitors. Part II. Second-Generation Analogues with Enhanced Potency, Selectivity, and Pharmacodynamic Modulation in Vivo” (J Med Chem, 2015).

For data set [1], the target named is Tyrosine-protein kinase Lck (Homo sapiens, UniProt P06239). Briefly: Inhibition of LCK (unknown origin).
Data set [2] can be described thus: Cytotoxicity against human Jurkat T cells without TCR stimulation assessed as cell viability by ATPlite assay. (In ATP-based viability assays light output follows the ATP content of the culture.)
The nature of the next data set: physchem. As to conditions: aqueous phosphate buffer, pH 7.4, Kinetic_solubility.
The species entered for data set [3] is Homo sapiens. Briefly: Selectivity ratio of Ki for LCK (unknown origin) to Ki for GST-tagged recombinant full length human ITK.
A short description of data set [4]: Plasma protein binding in human. The format is ADME, cell-free. As to conditions: read-out: PPB (converted).
Data set [5] can be described thus: Permeability in MDCK cells. In kind it is ADME, cell-based, Canis lupus familiaris. The note with it: dog, read-out: permeability.
A short description of data set [6]: 1-octanol-phosphate buffer partition coefficient, log D of the compound at pH 7.4 by UPLC/MS/MS analysis.
The test system of a further data set is Hepatocyte. Nature of the data set: Cytotoxicity against hepatocytes (unknown origin).
Another data set concerns the target hERG (KCNH2) (Homo sapiens, UniProt Q12809). Nature of the data set: Inhibition of human ERG at 10 uM by patch clamp assay relative to control. A general note: The patch-clamp technique gives a direct electrical read-out from membranes.
For data set [7], the system named is Mus musculus. Briefly: Reduction in serum IL-13 level in C57/Bl6 mouse at 200 mg/kg, ip administered for 1 hr followed by anti-CD3 treatment measured after 1.5 hrs relative to vehicle-treated control. In kind it is functional. Also on record: scale not given: the % may be the effect or the level left. The note with it: route intraperitoneal.
Data set [8] has as its system Mus musculus. Briefly: Reduction in serum IL-2 level in C57/Bl6 mouse at 100 mg/kg, ip administered for 1 hr followed by anti-CD3 treatment measured after 1.5 hrs relative to vehicle-treated control. The note with it: route intraperitoneal. Also on record: scale not given: the % may be the effect or the level left. In kind it is functional.
Data set [9] is described as follows: Plasma concentration in C57/Bl6 mouse at 200 mg/kg, ip administered for 1 hr followed by anti-CD3 treatment measured at 2.5 hrs. In kind it is ADME, organism-based. Also on record: dose 200 mg/kg, route intraperitoneal.
Data set [10] relates to Mus musculus. Briefly: Reduction in serum IL-13 level in C57/Bl6 mouse at 100 mg/kg, ip administered for 1 hr followed by anti-CD3 treatment measured after 1.5 hrs relative to vehicle-treated control. Also on record: scale not given: the % may be the effect or the level left. In kind it is functional. As to conditions: route intraperitoneal.
The subject of data set [11] is Mus musculus. Nature of the data set: Reduction in serum IL-13 level in C57/Bl6 mouse at 30 mg/kg, ip administered for 1 hr followed by anti-CD3 treatment measured after 1.5 hrs relative to vehicle-treated control. In kind it is functional. Also on record: scale not given: the % may be the effect or the level left. As to conditions: route intraperitoneal.
Data set [12] concerns Mus musculus. Nature of the data set: Reduction in serum IL-2 level in C57/Bl6 mouse at 30 mg/kg, ip administered for 1 hr followed by anti-CD3 treatment measured after 1.5 hrs relative to vehicle-treated control. In kind it is functional. As to conditions: route intraperitoneal. Also on record: scale not given: the % may be the effect or the level left.
Data set [13] concerns Mus musculus. Nature of the data set: Reduction in serum IL-2 level in C57/Bl6 mouse at 200 mg/kg, ip administered for 1 hr followed by anti-CD3 treatment measured after 1.5 hrs relative to vehicle-treated control. In kind it is functional. As to conditions: route intraperitoneal.
In data set [14] the test system is Mus musculus. Briefly: Reduction in serum IL-2 level in ip dosed C57/Bl6 mouse administered for 1 hr followed by anti-CD3 treatment measured after 1.5 hrs. In kind it is functional, organism-based.
Data set [15] concerns the target 5-hydroxytryptamine receptor 2A (Homo sapiens) (UniProt P28223). Nature of the data set: Binding affinity to human 5HT-2A receptor assessed as protein-compound complex at 10 uM relative to control.
Data set [16] addresses D(2) dopamine receptor (Homo sapiens) (UniProt P14416). Briefly: Binding affinity to human dopamine D2S receptor assessed as protein-compound complex at 10 uM relative to control.
The target of data set [17] is Sodium-dependent serotonin transporter (Homo sapiens) (UniProt P31645). Nature of the data set: Binding affinity to human 5-HT transporter assessed as protein-compound complex at 10 uM relative to control.
Data set [18] concerns the target D(1A) dopamine receptor (Homo sapiens) (UniProt P21728). Nature of the data set: Binding affinity to human dopamine D1 receptor assessed as protein-compound complex at 10 uM relative to control.
For data set [19], the species on record is Homo sapiens. Nature of the data set: Binding affinity to L-type calcium channel verapamil binding site (unknown origin) assessed as protein-compound complex at 10 uM relative to control.

Each structure is given as a SMILES string. Converted amounts (≈) assume the structure as drawn. “And” between values parts separate entries of the source, which are not always exact repeats. Equal values may be shown once.

hERG (KCNH2), sequence (Q12809 whole entry): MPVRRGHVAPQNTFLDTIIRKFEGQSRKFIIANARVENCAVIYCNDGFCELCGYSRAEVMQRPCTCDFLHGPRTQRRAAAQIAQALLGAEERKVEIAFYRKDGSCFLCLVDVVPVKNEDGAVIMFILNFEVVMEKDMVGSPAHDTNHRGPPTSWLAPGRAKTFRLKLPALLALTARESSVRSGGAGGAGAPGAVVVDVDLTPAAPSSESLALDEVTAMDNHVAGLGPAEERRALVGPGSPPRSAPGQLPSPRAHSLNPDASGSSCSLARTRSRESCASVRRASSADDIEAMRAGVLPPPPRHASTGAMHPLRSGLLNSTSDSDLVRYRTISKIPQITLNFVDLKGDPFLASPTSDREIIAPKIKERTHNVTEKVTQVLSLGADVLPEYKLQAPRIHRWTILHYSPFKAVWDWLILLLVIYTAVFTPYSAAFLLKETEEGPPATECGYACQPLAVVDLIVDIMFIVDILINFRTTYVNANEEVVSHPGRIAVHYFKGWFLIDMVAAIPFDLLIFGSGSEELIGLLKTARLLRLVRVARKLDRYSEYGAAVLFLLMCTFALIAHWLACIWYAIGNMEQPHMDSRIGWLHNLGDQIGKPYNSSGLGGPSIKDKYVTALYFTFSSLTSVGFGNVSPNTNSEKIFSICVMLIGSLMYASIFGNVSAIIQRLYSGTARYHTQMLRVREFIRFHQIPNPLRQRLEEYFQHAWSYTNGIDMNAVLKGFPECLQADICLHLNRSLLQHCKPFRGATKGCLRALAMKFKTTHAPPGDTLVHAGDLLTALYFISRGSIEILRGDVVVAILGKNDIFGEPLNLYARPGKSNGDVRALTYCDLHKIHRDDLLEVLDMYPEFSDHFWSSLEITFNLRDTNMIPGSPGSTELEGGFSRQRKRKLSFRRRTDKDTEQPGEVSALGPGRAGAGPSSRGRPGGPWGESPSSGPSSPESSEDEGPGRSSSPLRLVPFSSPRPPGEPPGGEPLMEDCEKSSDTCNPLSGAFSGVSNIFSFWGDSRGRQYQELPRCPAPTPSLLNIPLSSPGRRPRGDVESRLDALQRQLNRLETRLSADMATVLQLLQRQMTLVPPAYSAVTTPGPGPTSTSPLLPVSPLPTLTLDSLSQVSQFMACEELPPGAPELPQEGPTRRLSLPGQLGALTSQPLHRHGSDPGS
Tyrosine-protein kinase Lck, sequence (P06239 whole entry): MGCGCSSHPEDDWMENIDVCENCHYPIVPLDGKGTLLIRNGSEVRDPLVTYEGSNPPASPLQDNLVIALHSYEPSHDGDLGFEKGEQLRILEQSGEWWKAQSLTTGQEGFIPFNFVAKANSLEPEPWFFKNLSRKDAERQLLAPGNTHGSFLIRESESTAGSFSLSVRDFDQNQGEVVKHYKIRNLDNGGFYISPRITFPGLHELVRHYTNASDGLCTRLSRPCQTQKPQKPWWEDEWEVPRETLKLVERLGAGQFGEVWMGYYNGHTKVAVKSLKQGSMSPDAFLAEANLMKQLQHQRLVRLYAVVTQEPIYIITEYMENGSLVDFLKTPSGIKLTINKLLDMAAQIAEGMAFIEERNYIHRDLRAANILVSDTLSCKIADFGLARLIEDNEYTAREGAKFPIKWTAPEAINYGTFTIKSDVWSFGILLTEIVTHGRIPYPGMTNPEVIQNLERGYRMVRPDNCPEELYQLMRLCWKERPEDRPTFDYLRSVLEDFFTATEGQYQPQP
D(2) dopamine receptor (Homo sapiens), sequence (P14416 whole entry): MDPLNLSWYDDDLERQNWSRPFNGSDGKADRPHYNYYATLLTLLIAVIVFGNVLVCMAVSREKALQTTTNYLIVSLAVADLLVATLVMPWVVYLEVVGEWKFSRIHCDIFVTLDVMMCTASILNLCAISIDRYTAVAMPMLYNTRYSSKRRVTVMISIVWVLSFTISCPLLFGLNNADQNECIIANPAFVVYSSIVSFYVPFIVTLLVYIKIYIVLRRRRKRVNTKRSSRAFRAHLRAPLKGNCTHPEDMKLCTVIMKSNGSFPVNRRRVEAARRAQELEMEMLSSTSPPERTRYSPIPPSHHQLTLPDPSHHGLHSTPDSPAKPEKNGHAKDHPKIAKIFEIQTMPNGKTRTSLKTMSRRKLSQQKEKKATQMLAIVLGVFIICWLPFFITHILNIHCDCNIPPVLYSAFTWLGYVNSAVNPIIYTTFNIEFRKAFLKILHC
D(1A) dopamine receptor (Homo sapiens), sequence (P21728 whole entry): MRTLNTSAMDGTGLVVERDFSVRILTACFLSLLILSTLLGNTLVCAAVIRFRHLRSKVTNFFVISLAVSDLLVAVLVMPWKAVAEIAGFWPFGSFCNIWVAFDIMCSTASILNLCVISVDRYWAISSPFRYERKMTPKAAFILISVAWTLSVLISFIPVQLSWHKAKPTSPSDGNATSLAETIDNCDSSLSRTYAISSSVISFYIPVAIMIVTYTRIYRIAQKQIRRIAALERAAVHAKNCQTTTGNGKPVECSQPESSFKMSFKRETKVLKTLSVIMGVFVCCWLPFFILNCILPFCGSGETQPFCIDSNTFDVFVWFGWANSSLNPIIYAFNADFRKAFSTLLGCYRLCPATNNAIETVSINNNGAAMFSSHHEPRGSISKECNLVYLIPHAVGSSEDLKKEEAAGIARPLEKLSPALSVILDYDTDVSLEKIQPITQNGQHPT
5-hydroxytryptamine receptor 2A (Homo sapiens), sequence (P28223 whole entry): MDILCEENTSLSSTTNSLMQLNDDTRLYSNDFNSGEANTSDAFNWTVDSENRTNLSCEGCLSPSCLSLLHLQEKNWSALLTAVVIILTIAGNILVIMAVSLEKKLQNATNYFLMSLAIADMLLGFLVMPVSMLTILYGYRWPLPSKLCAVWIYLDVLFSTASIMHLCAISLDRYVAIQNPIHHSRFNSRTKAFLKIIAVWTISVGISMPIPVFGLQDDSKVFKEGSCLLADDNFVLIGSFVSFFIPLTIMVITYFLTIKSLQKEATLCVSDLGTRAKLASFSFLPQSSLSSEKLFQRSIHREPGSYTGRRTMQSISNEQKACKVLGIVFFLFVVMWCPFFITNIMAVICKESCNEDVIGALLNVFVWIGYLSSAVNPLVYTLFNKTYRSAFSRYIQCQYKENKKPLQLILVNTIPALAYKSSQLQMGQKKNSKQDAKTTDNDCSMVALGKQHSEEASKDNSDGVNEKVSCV
Sodium-dependent serotonin transporter (Homo sapiens), sequence (P31645 whole entry, looked up): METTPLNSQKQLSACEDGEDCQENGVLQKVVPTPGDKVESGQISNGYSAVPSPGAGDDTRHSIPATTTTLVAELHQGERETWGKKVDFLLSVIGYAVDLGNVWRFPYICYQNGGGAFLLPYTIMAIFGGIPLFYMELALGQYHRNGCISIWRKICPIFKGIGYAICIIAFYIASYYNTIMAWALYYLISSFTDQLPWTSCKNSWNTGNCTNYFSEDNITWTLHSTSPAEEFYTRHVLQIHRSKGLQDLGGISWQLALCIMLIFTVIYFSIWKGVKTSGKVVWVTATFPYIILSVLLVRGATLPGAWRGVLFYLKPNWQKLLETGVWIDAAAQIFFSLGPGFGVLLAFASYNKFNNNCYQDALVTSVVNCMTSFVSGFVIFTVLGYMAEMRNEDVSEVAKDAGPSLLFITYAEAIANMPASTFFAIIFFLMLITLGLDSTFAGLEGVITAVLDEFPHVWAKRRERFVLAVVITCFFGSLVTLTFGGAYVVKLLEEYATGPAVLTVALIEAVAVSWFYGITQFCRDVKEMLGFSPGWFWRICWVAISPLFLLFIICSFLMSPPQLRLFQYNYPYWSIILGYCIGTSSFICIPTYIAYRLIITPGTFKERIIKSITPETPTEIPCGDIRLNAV
Description for physchem: Kinetic solubility of the compound in aqueous phosphate buffer at pH 7.4 after 24 hrs by HPLC/CLND method

The Ki is the equilibrium dissociation constant of an inhibitor or competing ligand from its target. With `CC1(C)CCc2c(C(=O)Nc3cnn(Cc4ccccc4)c3)n[nH]c2C1`, the Ki in data set [1] came to 1.8 µM.
Broadly, the IC50 is the concentration needed to halve the response being measured. The solubility (kinetic) is the concentration staying in solution when a stock, usually in DMSO, is diluted into the medium. Turning to `CC1(C)CCc2c(C(=O)Nc3cnn([C@H](c4ccccc4)C4CCCS(=O)(=O)C4)c3)n[nH]c2C1` (stereo partly specified), the IC50 in data set [2] (jurkat) is 44 µM and 20 µM. The molecule further yielded a kinetic solubility at 24 h in “physchem” of 11 µM (≈ 5.3 µg/mL).
As for `CC1(C)CCc2c(C(=O)Nc3cnn([C@H](c4ccccc4)C4CCS(=O)(=O)CC4)c3)n[nH]c2C1`, the IC50 in [2] (Homo sapiens, Jurkat) was 29 µM. In addition, in the data set “physchem”, the kinetic solubility at 24 h worked out at 4.3 µM (≈ 2.07 µg/mL).
`CC1(C)CCc2c(C(=O)Nc3cnn([C@H](c4ccccc4)C4CCS(=O)(=O)C4)c3)n[nH]c2C1` (stereo partly specified): the IC50 in [2] (Homo sapiens, Jurkat) is 27 µM; in data set [2] (jurkat) it was greater than 50 µM.
As for `CC1(C)CCc2c(C(=O)Nc3cnn([C@@H](CCS(C)(=O)=O)c4ccccc4)c3)n[nH]c2C1`, the IC50 in data set [2] (Homo sapiens, Jurkat) stood at 57 µM. In [1], this molecule came in with a Ki of 1.8 µM. Also, the Ratio Ki in the data set filed under Homo sapiens [3] is 290.
A word on the logD: it is the decadic logarithm of the distribution of all forms, ionised or not, between an organic phase and buffer at a given pH. A word on the inhibition: it is the share of the control response that was lost under treatment. On to `C[C@@]12Cc3[nH]nc(C(=O)Nc4cnn([C@H](c5ccccc5)[C@H]5CCCCS5(=O)=O)c4)c3C[C@@H]1C2(F)F`, for which the fraction unbound in [4] is 0.03. Further, the Papp in [5] stood at 1.5 ×10⁻⁶ cm/s. For the same molecule, the IC50 is 12 µM in [2] (Homo sapiens, Jurkat) and greater than 100 µM with Hepatocyte. In data set [6], this molecule displayed a logD of 2.8. The same molecule showed an inhibition at 10 µM against hERG (KCNH2) of 6.8%. The kinetic solubility at 24 h in “physchem” amounted to 3.9 µM (≈ 2.01 µg/mL).
Turning to `CC1(C)CCc2c(C(=O)Nc3cnn([C@H](c4ccccc4)C4CCCCS4(=O)=O)c3)n[nH]c2C1` (stereo partly specified), the IC50 is greater than 50 µM in data set [2] (Homo sapiens, Jurkat) and 33 µM in [2] (jurkat). Moreover, the kinetic solubility at 24 h in the data set “physchem” is 10 µM (≈ 4.82 µg/mL).
Turning to `C[C@@]12Cc3[nH]nc(C(=O)Nc4cnn([C@H](c5ccccc5)C5CCS(=O)(=O)CC5)c4)c3C[C@@H]1C2`, the fraction unbound in [4] was 0.03. For the same molecule, the Papp in data set [5] was determined as 4.4 ×10⁻⁶ cm/s. Further, the IC50 in [2] (Homo sapiens, Jurkat) was 29 µM; in the data set on Hepatocyte it was greater than 100 µM. The logD in data set [6] turned out to be 3.5. Testing at 10 µM against hERG (KCNH2) gave an inhibition of 34%. Besides, the kinetic solubility at 24 h in “physchem” is 6.5 µM (≈ 3.12 µg/mL).
`CC1(C)CCc2c(C(=O)Nc3cnn([C@@H](CS(C)(=O)=O)c4ccccc4)c3)n[nH]c2C1`: in data set [2] (Homo sapiens, Jurkat), the IC50 stood at 42 µM. The molecule also displayed a Ki in data set [1] greater than 2.5 µM. This molecule also returned a solubility (kinetic) at 24 h in “physchem” of 4.5 µM (≈ 1.99 µg/mL).
Take `CC1(C)CCc2c(C(=O)Nc3cnn([C@H](c4ccccc4)C4CC[S+]([O-])CC4)c3)n[nH]c2C1` (stereo partly specified): in data set [4], the fraction unbound was 0.06. Moreover, the Papp in [5] worked out at 1.9 ×10⁻⁶ cm/s. In addition, the Activity in the data set with Mus musculus [7] was 100%; with Mus musculus [8], 90%; in the data set on Mus musculus [10] it was 95%; in the data set with Mus musculus [11] it was 62%; in the data set with Mus musculus [12], 55%; in the data set on Mus musculus [14] it was “Dose-dependent effect”. Besides, the IC50 worked out at 20 µM in [2] (Homo sapiens, Jurkat); 30 µM in [2] (jurkat); 83 µM with Hepatocyte. Further, the concentration at 2.5 h in [9] is 80 µM. The same molecule displayed a logD in data set [6] of 3.6. For the same molecule, 10 µM produced 3.6% inhibition against hERG (KCNH2). The “%max” value in the data set on Mus musculus [13] came out at 98%. In the data set “physchem”, this molecule came in with a solubility (kinetic) at 24 h of 45 µM (≈ 21 µg/mL).
With `CN(C)CC[C@@H](c1ccccc1)n1cc(NC(=O)c2n[nH]c3c2CCC(C)(C)C3)cn1`, the IC50 in data set [2] (Homo sapiens, Jurkat) is 4.7 µM; in the data set on Hepatocyte, 6.2 µM. The molecule also displayed a Ki in data set [1] of 0.34 µM. The Activity in [15] amounted to 96%; in [16], 96%; in [17], 102%; in data set [18], 96%; in the data set listed under Homo sapiens [19], 88%. Further, the inhibition at 10 µM against hERG (KCNH2) was 88%.
The molecule `CC12Cc3[nH]nc(C(=O)Nc4cnn(Cc5ccccc5)c4)c3CC1C2` (stereo unspecified) registered a Ki in data set [1] of 1.4 µM.
